Source: patent US20050142068A1, “Retinal toxicity screening methods” (Pfizer Inc, priority 2003, published 2005)

Legend:
RPE-J cells = test: Assay to identify retinal toxic agents: integrin marker fluorescence in RPE-J cells, confocal microscopy; format: cell-based, rat; details: 50 nM integrin marker, one hour
Text: For each figure, the photomicrograph on the left is made using two excitation wavelengths—488 nm (argon laser) for the integrin marker peptide and 633 nm (HeNe laser) for TOTO®-3 iodide. The integrin peptide marker fluoresces at 520 nm and TOTO®-3 iodide fluoresces at 660 nm. The photomicrograph on the right is of the identical cells as those in the left micrograph, but under 488 nm excitation alone.
RPE-J cells were plate cultured in high glucose DMEM medium (cat. no. 10313021, Invitrogen, Carlsbad, Calif.) containing 4% fetal calf serum (cat. no. 12319018, Invitrogen) at 33° C. under 5-10% CO2 atmosphere. When confluence of about 80% was reached (after about seven days), the medium was removed from the culture dish and the cells on the bottoms were washed with 0.25% trypsin-EDTA (cat. no. 25200056, Invitrogen) for three and one-half to five minutes. Following trypsinization the cells were centrifuged at 500-600 RPM for five minutes and resuspended in high glucose DMEM medium containing 4% fetal calf serum. The cells were plated in a four-chamber slide (1.7 cm^2 per chamber) at 50,000 cells per chamber. When confluence of about 80% was reached, the cells were gently wash the cells in warm phosphate buffered saline. […] Fluorescence was detected at 520 nm for the integrin marker peptide and at 660 nm for TOTO®-3 iodide.

retina = details: literature reports; cited from earlier work

SMILES	visibility of integrin peptide marker fluorescence (RPE-J cells; 1 μM tamoxifen, 488 nm excitation (FIG. 3))	visibility of integrin peptide marker fluorescence (RPE-J cells; 25 μM tamoxifen, 488 nm excitation (FIG. 4))	damage to the retina reported as a result of exposure (retina)
CC/C(=C(\c1ccccc1)c1ccc(OCCN(C)C)cc1)c1ccccc1 [tamoxifen]	clearly visible	highly visible	
CCN(CC)CCCC(C)Nc1ccnc2cc(Cl)ccc12 (stereo not shown) [cloroquine]			retinopathy
CN(C)CCCN1c2ccccc2Sc2ccc(Cl)cc21 [chlorpromazine]			retinopathy
